Legend:
Test in all cases: Inhibition of cell proliferation (MTT)
Assay type in all cases: cell-based
RPMI-8226 = settings: Homo sapiens; RPMI-8226, Leukemia; 48 hours
Description: (§1) Inhibition of cell proliferation is determined in human tumor cell lines. Innoculation density and doubling times for specific cell lines are listed at World Wide Web URL “dtp.nci.nih.gov/docs/misc/common_files/cell_list.html.”
(§2) • 1. Plate adherent cells the day before starting the experiment in 180 μl growth media (see list hereafter). • 2. Day of experiment, count and plate suspension cells in 180 μl growth media (see list on next page). • 3. Make 10× Compound, vehicle, and chemotherapeutic cocktail • a. Compound (1× to 10×) • i. 10 μM Compound to 100 μM • ii. 3 μM Compound to 30 μM • iii. 1 μM Compound to 10 μM • iv. 0.3 μM Compound to 3 μM • v. 0.1 μM Compound to 1 μM • b. Vehicle • i. PBS, equivalent to the volume used for 10 μM Compound (1× is ˜0.06% PBS) • c. Chemotherapeutic cocktail (1× to 10×): • i. 1 μM Velcade to 10 μM • ii. 100 μM Etoposide to 1 mM • iii. 20 μM Taxol to 200 μM • 4. Add 20 μl of the 10× compound/vehicle/chemotherapeutic cocktail to cells. • 5. Incubate at 37° C., 5% CO2 for 48 hours. • 6. Aspirate media. For suspension cells, spin plate at 1500 RPM for 10 minutes. Use a multichannel pipettor to slowly remove media. • 7. Add 200 μl of Thiazolyl Blue Tetrazolium Bromide (MTT) to each well: 0.863 mg/ml MTT in growth media.
(§3) Proliferation of several cancer cells was inhibited by compound TA1-1B (which is a particular mixture of the isomers represented by TA1-1A), as shown in the following table (Table 1). The value EC50 is the amount of Compound TA1-1B that results in 50% inhibition of proliferation of the indicated cell type.

NCI-H460 = settings: Homo sapiens; NCI-H460, Non Small Cell Lung; 48 hours
Description: as §1, §2, §3

Daudi = settings: Homo sapiens, Lymphoma, 48 hours
Description: as §1, §2, §3

Raji = settings: Homo sapiens, Lymphoma, 48 hours
Description: as §1, §2, §3

Hs602 = settings: Homo sapiens; Hs602, Lymphoma; 48 hours
Description: as §1, §2, §3

SF-539 = settings: Homo sapiens; SF-539, CNS; 48 hours
Description: as §1, §2, §3

786-0 = settings: Homo sapiens; 786-0, Renal; 48 hours
Description: as §1, §2, §3

H9 = settings: Homo sapiens; H9, Lymphoma; 48 hours
Description: as §1, §2, §3

TF-1 = settings: Homo sapiens; TF-1, Leukemia; 48 hours
Description: as §1, §2, §3

J45-01 = settings: Homo sapiens; J45-01, Leukemia; 48 hours
Description: as §1, §2, §3

MOLT-4 = settings: Homo sapiens; MOLT-4, Leukemia; 48 hours
Description: as §1, §2, §3

SNB-19 = settings: Homo sapiens; SNB-19, CNS; 48 hours
Description: as §1, §2, §3

Jurkat = settings: Homo sapiens, Leukemia, 48 hours
Description: as §1, §2, §3

UO-31 = settings: Homo sapiens; UO-31, Renal; 48 hours
Description: as §1, §2, §3

NCI/ADR-RES = settings: Homo sapiens, Breast, 48 hours
Description: as §1, §2, §3

NCI-H322M = settings: Homo sapiens, Non Small Cell Lung, 48 hours
Description: as §1, §2, §3

RS1184 = settings: Homo sapiens; RS1184, Lymphoma; 48 hours
Description: as §1, §2, §3

M14 = settings: Homo sapiens; M14, Melanoma; 48 hours
Description: as §1, §2, §3

D1-1 = settings: Homo sapiens; D1-1, Leukemia; 48 hours
Description: as §1, §2, §3

RPMI-6666 = settings: Homo sapiens; RPMI-6666, Lymphoma; 48 hours
Description: as §1, §2, §3

U266B1 = settings: Homo sapiens; U266B1, Lymphoma; 48 hours
Description: as §1, §2, §3

MDA-MB-435 = settings: Homo sapiens; MDA-MB-435, Breast; 48 hours
Description: as §1, §2, §3

NCI-H522 = settings: Homo sapiens; NCI-H522, Non Small Cell Lung; 48 hours
Description: as §1, §2, §3

SF-268 = settings: Homo sapiens; SF-268, CNS; 48 hours
Description: as §1, §2, §3

NC37 = settings: Homo sapiens, NC-37; NC37, Lymphoma; 48 hours
Description: as §1, §2, §3

IGROV1 = settings: Homo sapiens, IGROV-1; IGROV1, Ovarian; 48 hours
Description: as §1, §2, §3

THP-1 = settings: Homo sapiens; THP-1, Leukemia; 48 hours
Description: as §1, §2, §3

KG-1 = settings: Homo sapiens; KG-1, Leukemia; 48 hours
Description: as §1, §2, §3

I 9.2 = settings: Homo sapiens; I 9.2, Leukemia; 48 hours
Description: as §1, §2, §3

MCF7 = settings: Homo sapiens; MCF7, Breast; 48 hours
Description: as §1, §2, §3

MEG-01 = settings: Homo sapiens; MEG-01, Leukemia; 48 hours
Description: as §1, §2, §3

CN1CCC[C@H]1CCNC(=O)c1cn2c3c(c(N4CCC(c5cnccn5)C4)c(F)cc3c1=O)Oc1cc3ccccc3cc1-2 (stereo partly shown) [TA1-1B]
EC50 (RPMI-8226): 1370 nM | EC50 (NCI-H460): 4010 nM | EC50 (Daudi): 1290 nM | EC50 (Raji): 1880 nM | EC50 (Hs602): 1280 nM | EC50 (SF-539): 1110 nM | EC50 (786-0): 4340 nM | EC50 (H9): 2240 nM | EC50 (TF-1): 5460 nM | EC50 (J45-01): 1890 nM | EC50 (MOLT-4): 1210 nM | EC50 (SNB-19): 4630 nM | EC50 (Jurkat): 1210 nM | EC50 (UO-31): 2380 nM | EC50 (NCI/ADR-RES): 1620 nM | EC50 (NCI-H322M): 4280 nM | EC50 (RS1184): 3250 nM | EC50 (M14): 4980 nM | EC50 (D1-1): 4160 nM | EC50 (RPMI-6666): 1590 nM | EC50 (U266B1): 1620 nM | EC50 (MDA-MB-435): 3630 nM | EC50 (NCI-H522): 1500 nM | EC50 (SF-268): 1230 nM | EC50 (NC37): 1260 nM | EC50 (IGROV1): 4440 nM | EC50 (THP-1): 3180 nM | EC50 (KG-1): 3970 nM | EC50 (I 9.2): 3690 nM | EC50 (MCF7): 3460 nM | EC50 (MEG-01): 6000 nM

Source: US20080318938A1, “METHODS FOR TREATING ABERRANT CELL PROLIFERATION DISORDERS” (priority 2007, published 2008)
